Assay results as given in patent publication US9504684B2, “Syk inhibitors” (Gilead Sciences, Inc., priority 2014, dated 2016).
Structures can show the parent of a compound that is named as a salt.

Experiments:
human hepatocytes = assay: Human Hepatocyte Stability Assay; assay type: in vitro ADME
Experimental: The human […] stability of the compounds as predicted hepatocyte clearance in L/hr/kg was assessed. Compounds to be tested were diluted to 200 μM (4 μl of 10 mM DMSO stock into 196 μl ACN:H2O (50:50). Propranolol was used as a positive control, and buffer only without hepatocytes as 0% control. These were further diluted 4 μl with 891 μl KHB buffer (InVitroGRO catalog number Z99074) to provide 2× dosing solution. To each well of 24 well plate, 250 μl of the 2× dosing solution was added to each well with 250 μl of hepatocytes cells (1×10^6 viable cells/ml per well) or KHB for control samples to achieve a final compound concentration of 1 μM during incubation. The final solvent concentration was 0.01% DMSO and 0.25% ACN. The culture plate was placed on a rocker and incubated at 37° C., 5% CO2. Samples were collected at time 0, 1, 3, and 6 hours. The loss of parent compound was determined using LC-MS methods against a standard curve.

[1] = in vivo; cited from earlier work
[2] = cited from earlier work
[3] = comparison table of Example 12, head prints "(units)", L/hr/kg per Example 11
[4] = predicted hepatocyte clearance, human hepatocytes, 1 μM compound

With `Cc1ncc(-c2cn3ccnc3c(Nc3ccc(N4CCN(C5COC5)CC4)c(OCCO)c3)n2)nc1N` [Ex.-7, 2-(5-((6-(6-amino-5-methylpyrazin-2-yl)imidazo[1,2-a]pyrazin-8-yl)amino)-2-(4-(oxetan-3-yl)piperazin-1-yl)phenoxy)ethanol] the “Hheps CL” value (human hepatocytes; [3]) was 0.05 L/h/kg and the “Hheps CL” value (human hepatocytes; [4]) was 0.05 L/h/kg.

In the case of `Nc1cncc(-c2cn3ccnc3c(Nc3ccc(N4CCOCC4)cc3)n2)c1` [6-(5-aminopyridin-3-yl)-N-(4-morpholinophenyl)imidazo[1,2-a]pyrazin-8-amine, reference compound], the “Hheps CL” value (human hepatocytes; [3]) was 0.68 L/h/kg.

For `Cc1c(-c2cncc(N)n2)nc(Nc2ccc(N3CCN(C4COC4)CC3)cc2)c2nccn12` [Ex.-4, 6-(6-aminopyrazin-2-yl)-5-methyl-N-(4-(4-(oxetan-3-yl)piperazin-1-yl)phenyl)imidazo[1,2-a]pyrazin-8-amine], the “Hheps CL” value (human hepatocytes; [3]) was 0.08 L/h/kg and the “Hheps CL” value (human hepatocytes; [4]) was 0.08 L/h/kg.

For `Nc1cncc(-c2cn3ccnc3c(Nc3ccc(N4CCN(C5COC5)CC4)cc3)n2)n1` [Ex.-2, 6-(6-aminopyrazin-2-yl)-N-(4-(4-(oxetan-3-yl)piperazin-1-yl)phenyl)imidazo[1,2-a]pyrazin-8-amine], the “Hheps CL” value (human hepatocytes; [3]) was 0.055 L/h/kg and the “Hheps CL” value (human hepatocytes; [4]) was 0.055 L/h/kg.

In the case of `Cc1ncc(-c2cn3ccnc3c(Nc3ccc(N4CCOCC4)cc3)n2)cc1N` [6-(5-amino-6-methylpyridin-3-yl)-N-(4-morpholinophenyl)imidazo[1,2-a]pyrazin-8-amine, reference compound], the “Hheps CL” value (human hepatocytes; [3]) was 0.80 L/h/kg.

For `Nc1cncc(-c2cn3ccnc3c(Nc3ccc(N4CCO[C@@H](CO)C4)cc3)n2)n1` [Ex.-3, (R)-(4-(4-((6-(6-aminopyrazin-2-yl)imidazo[1,2-a]pyrazin-8-yl)amino)phenyl)morpholin-2-yl)methanol], the “Hheps CL” value (human hepatocytes; [3]) was 0.09 L/h/kg and the “Hheps CL” value (human hepatocytes; [4]) was 0.09 L/h/kg.

With `Nc1cncc(-c2cn3ccnc3c(Nc3ccc(N4CCN(C5COC5)CC4)c(OCCO)c3)n2)n1` [Ex.-5, 2-(5-((6-(6-aminopyrazin-2-yl)imidazo[1,2-a]pyrazin-8-yl)amino)-2-(4-(oxetan-3-yl)piperazin-1-yl)phenoxy)ethanol] the “Hheps CL” value (human hepatocytes; [3]) was 0.07 L/h/kg and the “Hheps CL” value (human hepatocytes; [4]) was 0.07 L/h/kg.

For `Cc1ncc(-c2cn3ccnc3c(Nc3ccc(N4CCN(C5COC5)CC4)cc3)n2)nc1N` [Ex.-1, 6-(6-amino-5-methylpyrazin-2-yl)-N-(4-(4-(oxetan-3-yl)piperazin-1-yl)phenyl)imidazo[1,2-a]pyrazin-8-amine], the “Hheps CL” value (human hepatocytes; [3]) was 0.12 L/h/kg and the “Hheps CL” value (human hepatocytes; [4]) was 0.12 L/h/kg.

In the case of `CC[C@]1(O)C[C@@H]2CN(CCc3c([nH]c4ccccc34)[C@@](C(=O)OC)(c3cc4c(cc3OC)N(C)[C@H]3[C@@](O)(C(N)=O)[C@H](O)[C@]5(CC)C=CCN6CC[C@]43[C@@H]65)C2)C1` [Vindesine, vindesine], the serum half-life [1] is listed as 24 h.

In the case of `COc1ccc(Nc2nc(-c3ccc(N)nc3)cn3ccnc23)cc1OC` [6-(6-aminopyridin-3-yl)-N-(3,4-dimethoxyphenyl)imidazo[1,2-a]pyrazin-8-amine, reference compound], the “Hheps CL” value (human hepatocytes; [3]) was 0.90 L/h/kg.

For `COc1ccc(Nc2nc(-c3cccc(N)c3)cn3ccnc23)cc1OC` [6-(3-aminophenyl)-N-(3,4-dimethoxyphenyl)imidazo[1,2-a]pyrazin-8-amine, reference compound], the “Hheps CL” value (human hepatocytes; [3]) was 0.24 L/h/kg.

For `Nc1cncc(-c2cn3ccnc3c(Nc3ccc(N4CCN(CC(CO)CO)CC4)cc3)n2)n1` [Ex.-6, 2-((4-(4-((6-(6-aminopyrazin-2-yl)imidazo[1,2-a]pyrazin-8-yl)amino)phenyl)piperazin-1-yl)methyl)propane-1,3-diol], the “Hheps CL” value (human hepatocytes; [3]) was 0.08 L/h/kg and the “Hheps CL” value (human hepatocytes; [4]) was 0.08 L/h/kg.

For `CC[C@]1(O)C[C@H]2CN(CCc3c([nH]c4ccccc34)[C@@](C(=O)OC)(c3cc4c(cc3OC)N(C=O)[C@H]3[C@@](O)(C(=O)OC)[C@H](OC(C)=O)[C@]5(CC)C=CCN6CC[C@]43[C@@H]65)C2)C1` [Vincristine Sulfate, vincristine sulfate], the “solubility in 95% ethanol” value ([2]; 95% ethanol) is given as “only slightly soluble”, the solubility in methanol ([2]; methanol) is given as “soluble in methanol” and the solubility in water ([2]; water) is given as “freely soluble”.
